Results published in patent US20250382556A1, “MODULATION OF THE BRANCHED-CHAIN METABOLITE CONTENT OF FRUITS AND VEGETABLES” (BOARD OF TRUSTEES OF MICHIGAN STATE UNIVERSITY, priority 2024, published 2025).

What was measured:
flowering quince fruit = assay: Headspace volatile emissions of flowering quince fruit treated with AHAS inhibitor; assay type: in vivo, Chaenomeles x superba; parameters: key to butyl acetate emissions compared to control: —: Dash indicates no significant difference between treatments
Procedure: (§1) Whole apple fruit, freshly harvested and at an early stage of ripening (‘ripening’), were held at room temperature (22° C.) and rubbed daily with 3 mL of a freshly made 1mM solution of the inhibitor rimsulfuron (N-((4,6-dimethoxypyrimidin-2-yl)aminocarbonyl)-3-(ethylsulfonyl)-2-pyridinesulfonamide, made from DuPont MATRIX® SG, 25% w/w active ingredient; 0.1% Tween 20) or water solution containing 0.1% Tween 20 before preparation with further treatments. Flowering quince fruit were smaller than the apple fruit and had 2 mL of the control and treatment solutions applied daily at 22° C. ‘Gala’, ‘Empire’, and ‘Jonagold’ apple fruit were treated for four, nine, and seven days before further preparation, respectively. Flowering quince fruit were treated for six days before analysis. Headspace volatile emissions were monitored for three or four representative fruits during the incubation/treatment period to determine appropriate times for further treatments. During method testing, 1 mM solutions of the imidazolinone imazamox was also assessed with apple fruit (2-[4,5-dihydro-4-methyl-4-(1-methylethyl)-5-oxo-1H-imidazol-2-yl]-5-(methoxymethyl)-3-pyridinecarboxylic acid, made from RAPTOR®, 12.1% w/w active ingredient; 0.1% Tween 20).
(§2) Headspace volatiles from small tissue samples incubated in 22 mL vials were adsorbed for 30 s using a solid-phase micro extraction (SPME) fiber (65 μm PDMS-DVB; Supelco Analytical). The SPME fiber was then directly desorbed for 1 min in the injection port of a gas chromatograph (GC; HP-6890, Hewlett-Packard) coupled to a time-of-flight mass spectrometer (MS; Pegasus II, LECO). Whole fruits and banana slices were incubated for 20 min at room temperature (22° C.) in 1-L sealed Teflon jars before a 15-s, or 3-min adsorption and 1- or 2-min desorption. Adsorption times were adjusted to ensure instrument responses were in the linear range. All desorbed volatiles were cryofocused at the beginning of the column by immersing said region of the column in liquid nitrogen. After the desorption period, the run was initiated and the liquid nitrogen removed.
(§3) The conditions of the system were as follows. Injection port: 200° C., splitless, ultra-purified helium (99.999%) carrier gas, front inlet flow 1.5 mL·min^−1 constant, 10 mL·min^−1 purge flow, 11.5 mL·min^−1 total flow. Oven: initial temperature 40° C. for 0 min, ramped by 43° C.·min^−1 to 185° C. for 0 min. Column: HP-5 MS, 30 m×0.25 mm i.d., 0.25 μm film thickness (Agilent). Transfer line temperature 225° C. MS: Electron ionization (−70 eV), ion source temperature 200° C., solvent delay 50 sec, m/z range 29 to 400, detector voltage 1500 V, data collection rate 20 Hz.
(§4) Compounds were identified by comparison of the retention time and mass spectrum against authenticated reference standards and spectra (National Institute of Standards and Technology Mass Spectral Search Program Version 2.0, 2001). Volatiles were quantified by calibration with a standard of 59 authenticated, high-purity compounds (Sigma-Aldrich Co. and Fluka Chemical) including the target compounds. The standard was made by placing 0.5 μL of an equal-part mixture of the neat compounds onto a disc of filter paper before quickly placing the filter paper into a 4-L sealed flask fitted with a Mininert valve (for SPME fiber access, and allowed to vaporize for at least 6 hours. SPME adsorption and desorption times of the standard matched that of the samples quantified (e.g., 30-s adsorption, 1 min desorption when quantifying samples in 22-mL vials).
(§5) Statistical analysis was performed using SciPy (v1.6.2), RStudio (v2023.03.0+386), or Microsoft Excel (v16.89). Against a specified value: one-tailed t-test Against two treatments: paired t-test for banana, two-sample t-test for apple and flowering quince. Against more than two treatments: Tukey's test following significant ANOVA. Analyses of branched-chain amino acids were one-tailed, all other metabolites were two-tailed. […]

apple fruit = assay: Headspace volatile ester emissions of ripening apple fruit treated with AHAS inhibitor; assay type: in vivo, Malus x domestica Borkh.; parameters: key to butyl acetate emissions compared to control / hexyl acetate emissions compared to control / ethyl acetate emissions compared to control / propyl acetate emissions compared to control: —: Dash indicates no significant difference between treatments; conditions: for 2-methylbutyl acetate (ile) emissions compared to control / 2-methylpropyl acetate (val) emissions compared to control / butyl acetate emissions compared to control / ethyl acetate emissions compared to control / hexyl acetate emissions compared to control / pentyl acetate emissions compared to control / propyl acetate emissions compared to control / sum of anteiso- and iso-branched-chain esters emissions compared to control: 1 mM daily
Procedure: as §1, §2, §3, §4, §5

[1] = Dr. Banks Pink flowering quince
[2] = Dr. Banks Pink flowering quince peel, 1 mM daily, six days
[3] = ripening Empire apple peel, nine days
[4] = ripening Gala apple peel, four days
[5] = ripening Jonagold apple peel, seven days

CCS(=O)(=O)c1cccnc1S(=O)(=O)NC(=O)Nc1nc(OC)cc(OC)n1 [rimsulfuron, N-((4,6-dimethoxypyrimidin-2-yl)aminocarbonyl)-3-(ethylsulfonyl)-2-pyridinesulfonamide]
butyl acetate, ethyl butanoate, estragole, or linalool versus untreated (flowering quince fruit; [1]): No difference | less 2-methylpropyl acetate and 2-methylbutyl acetate than untreated fruits (flowering quince fruit; [1]): 94.6% | more propyl acetate than untreated fruits (flowering quince fruit; [1]): 22.7 fold | 2-methylbutyl acetate (ile) emissions compared to control (flowering quince fruit; [2]): 5.2 ± 3.9% | 2-methylpropyl acetate (val) emissions compared to control (flowering quince fruit; [2]): 1.1 ± 1.4% | butyl acetate emissions compared to control (flowering quince fruit; [2]): — | propyl acetate emissions compared to control (flowering quince fruit; [2]): 2265.0 ± 869.0% | sum of anteiso- and iso-branched-chain esters emissions compared to control (flowering quince fruit; [2]): 3.0 ± 2.4% | concentration of pentyl acetate, more abundant when treated (apple fruit; all three cultivars (Gala, Empire, Jonagold), on average): 1.63 fold | 2-methylbutyl acetate (ile) emissions compared to control (apple fruit; [3]): 1.9 ± 0.6% | 2-methylpropyl acetate (val) emissions compared to control (apple fruit; [3]): 27.3 ± 5.4% | butyl acetate emissions compared to control (apple fruit; [3]): — | ethyl acetate emissions compared to control (apple fruit; [3]): 61.4 ± 7.9% | hexyl acetate emissions compared to control (apple fruit; [3]): — | pentyl acetate emissions compared to control (apple fruit; [3]): 161.9 ± 16.0% | propyl acetate emissions compared to control (apple fruit; [3]): 53.8 ± 8.5% | sum of anteiso- and iso-branched-chain esters emissions compared to control (apple fruit; [3]): 0.8 ± 0.2% | 2-methylbutyl acetate (ile) emissions compared to control (apple fruit; [4]): 27.0 ± 6.3% | 2-methylpropyl acetate (val) emissions compared to control (apple fruit; [4]): 36.4 ± 5.0% | butyl acetate emissions compared to control (apple fruit; [4]): — | ethyl acetate emissions compared to control (apple fruit; [4]): 57.7 ± 9.3% | hexyl acetate emissions compared to control (apple fruit; [4]): — | pentyl acetate emissions compared to control (apple fruit; [4]): 155.3 ± 17.5% | propyl acetate emissions compared to control (apple fruit; [4]): — | sum of anteiso- and iso-branched-chain esters emissions compared to control (apple fruit; [4]): 19.0 ± 4.5% | effect on butyl acetate (apple fruit; ripening Gala, Empire and Jonagold): no discernible effect | reduction of the total content of anteiso-branched-chain esters in the headspaces (apple fruit; ripening Gala, Empire and Jonagold apple fruits, on average): 91.2% | 2-methylpropyl acetate in headspace following treatment (apple fruit; ripening Gala, Empire and Jonagold, all three cultivars): reduced | 2-methylbutyl acetate (ile) emissions compared to control (apple fruit; [5]): 16.1 ± 1.4% | 2-methylpropyl acetate (val) emissions compared to control (apple fruit; [5]): 67.6 ± 4.1% | butyl acetate emissions compared to control (apple fruit; [5]): — | ethyl acetate emissions compared to control (apple fruit; [5]): — | hexyl acetate emissions compared to control (apple fruit; [5]): 162.7 ± 19.2% | pentyl acetate emissions compared to control (apple fruit; [5]): 172.3 ± 20.2% | propyl acetate emissions compared to control (apple fruit; [5]): — | sum of anteiso- and iso-branched-chain esters emissions compared to control (apple fruit; [5]): 6.5 ± 0.5%
